Each structure is given as a SMILES string. Marks after values point to notes of the source that are not given here.

One data set relates to decay fungi. Briefly: Protection of wood from decay fungi, Marandi wood blocks kept in open space for one year. The note with it: Marandi wood blocks sprayed, untreated control infested by Fusarium oxysporum. From the text:
Blocks of Marandi wood of size 30×15×4 cm (L×B×W) were taken for the experiment. The emulsion of cedar wood oil emulsifiable concentrate formulation in water was sprayed on two replicates of wooden blocks using a band sprayer. No emulsion was applied on untreated control. Market sample of Propiconazole was used as standard check for comparing the effect of this botanical cedar wood oil emulsifiable concentrate formulation. The blocks after application and untreated control were kept in open space for a period of one year starting from the month of November up to the month of October to subject the blocks to winter, summer and rainy season. Observations on the wooden blocks were taken to check the infestation of fungi and damage caused by fungi.

Data set [1] concerns termite, Odontotermes sp. Nature of the data set: Topical (direct contact toxicity) assay against termites, planar arena. In kind it is in vivo. The note with it: 25 ml/lit., after 24 hours, mean of five replications. On the procedure:
(§1) The formulation was evaluated under laboratory conditions following standard protocols for its contact and surface toxicity, against termite, Odontotermes sp. to simulate real field conditions. In the topical (direct contact toxicity) assay, the bio-termiticide was sprayed directly on the termites and mortality (death), repellence (moving away) or anti-feedant (non-feeding) effects were studied. This assay was carried out in simulation of curative management viz., post-infestation management. In the surface toxicity assay the surface on which the termites walk over was sprayed, termites were allowed to move on the treated surface later and mortality (death), repellence (moving a way) or anti-feedant (non-feeding) effects were studied. This assay was carried out in simulation of preventive management viz., pre-infestation management. These two methods were planned as they suffice the current needs of pre- and post-infestation termite management.
(§2) Both the topical and surface toxicity bioassays were carried out using planar arena assay method (Chouvenc et al. 20112011, Planar Arenas for Use in Laboratory Bioassay Studies of Subterranean Termites (Rhinotermitidae). Florida Entomologist, 94(4): 817-826) with minor modifications. Seven concentrations of the cedar wood oil Emulsifiable concentrate formulation, standard check Chlorpyriphos and untreated control were used in the bioassay. […]

The test system of data set [2] is termite, Odontotermes sp. Briefly: Surface toxicity assay against termites, planar arena. It is filed as in vivo. As to conditions: 25 ml/lit., termites released one hour after spraying, mean of five replications. On the procedure:
as §1, §2

As for `CCCC1COC(Cn2cncn2)(c2ccc(Cl)cc2Cl)O1` (centres unmarked) [Propiconazole], in the data set on decay fungi, the “infestation of fungi on treated wooden blocks” value is reported as “No infestation of the fungi”.
Turning to `CCOP(=S)(OCC)Oc1nc(Cl)c(Cl)cc1Cl` [Chlorpyriphos], the “Percent Mortality” value in data set [1] is listed as 92 (73.57)^b Percent; in data set [2], 80 (63.43)^b Percent. Moreover, the results for the Percent repellence in data set [1] and in data set [2] were 0 (0.29)^e Percent and 4 (11.54)^e Percent, respectively.

The values above are taken from patent publication US20240188571A1, “EMULSIFIABLE CONCENTRATE COMPOSITION AS WOOD PROTECTANT AND FOR TERMITE AND FUNGAL PATHOGENS CONTROL APPLICATIONS” (priority 2021, published 2024).
